Measured values taken from patent US5177082A, “Huperzines and analogs” (priority 1990, dated 1993).
Read-outs that look alike come from different tables or passages of the source.

Key:
[1] = biological target: true cholinesterase (Rattus norvegicus, UniProt P37136)
[2] = Tissue distribution of 3H-Huperzine A radioactivity, iv; format: in vivo, rat
Protocol: After giving 250 μCi/kg by iv injections of ^3 H-Huperzine A to the rats, they were sacrificed at different times by bloodletting and the radioactivity contents of the organs were measured.

[3] = Excretion of 3H-Huperzine A after a single dose; format: in vivo
[4] = iv 375 μCi/kg, rat blood
[5] = in vivo; conditions: rat, iv; for k el / Vd / half-life: rat blood
[6] = Plasma protein binding by equilibrium dialysis; format: in vitro ADME; conditions: mouse, plasma of normal mice
Source text: Using equilibrium dialysis, it could be shown that the protein binding of ^3 H-Huperzine A in the plasma of normal mice was 17.2±4.1%.

[7] = seven days after a single dose, 10080 min

true cholinesterase, sequence (P37136-2 with tags, fused parts or gaps limits assumed): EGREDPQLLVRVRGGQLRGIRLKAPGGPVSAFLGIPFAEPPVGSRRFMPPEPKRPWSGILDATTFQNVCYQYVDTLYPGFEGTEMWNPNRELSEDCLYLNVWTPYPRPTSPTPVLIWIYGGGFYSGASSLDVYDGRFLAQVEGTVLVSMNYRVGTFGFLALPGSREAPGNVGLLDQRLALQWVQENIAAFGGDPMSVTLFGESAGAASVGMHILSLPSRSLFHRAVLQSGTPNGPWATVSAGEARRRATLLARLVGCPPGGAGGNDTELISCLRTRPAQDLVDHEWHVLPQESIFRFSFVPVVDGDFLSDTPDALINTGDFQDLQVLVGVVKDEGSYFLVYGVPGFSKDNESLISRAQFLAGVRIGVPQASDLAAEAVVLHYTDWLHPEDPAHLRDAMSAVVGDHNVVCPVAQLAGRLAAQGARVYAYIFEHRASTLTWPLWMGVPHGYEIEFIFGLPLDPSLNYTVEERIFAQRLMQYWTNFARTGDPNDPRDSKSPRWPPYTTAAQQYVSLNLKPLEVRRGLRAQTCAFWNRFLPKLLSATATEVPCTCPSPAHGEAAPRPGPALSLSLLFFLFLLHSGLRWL

C[N+](C)(C)CCO.[Cl-] [choline chloride]
inhibition vs time response [1]: The same response was noted

C/C=C1\[C@H]2C=C(C)C[C@]1(N)c1ccc(=O)[nH]c1C2 [3H-Huperzine A]
radioactivity contents of the organs ([2]; 15 minutes after 250 μCi/kg iv): the kidney and liver had the highest contents, the lungs, spleen and heart had less and the fat and brain had the least | radioactivity in every organ examined ([2]; after twenty-four hours): only a minute quantity of radioactivity | brain distribution / blood-brain barrier ([2]; rat, in vivo): can pass the blood-brain barrier | radioactivity contents of the organs ([2]; twelve hours after 250 μCi/kg iv): the radioactivity in each tissue was close to zero | radioactivity contents of the organs ([2]; two hours after 250 μCi/kg iv): the radioactivity in the other tissues was markedly lower while that in the brain rose slightly | eliminated in the urine [3, 7]: 86.1% | eliminated through feces [3, 7]: 5.5% | excreted drug appearing within twenty-four hours (urine) ([3]; within twenty-four hours, 1440 min): 84.9% | K12 [4]: 0.0778 | K21 [4]: 0.0366 | phase rate constant α [4]: 0.129 min⁻¹ | time of peak radioactivity in blood (ig 375 μCi/kg, fasted 14 hours): 45 to 60 min | radioactivity in the blood (seven hours after ig): still relatively high | radioactivity in the blood (twenty minutes after ig): had risen noticeably | clearance [5]: 21.2 mL/min/kg | k el ([5]; K10, iv 375 μCi/kg): 0.00034 s⁻¹ | Vd ([5]; Vc, iv 375 μCi/kg): 1.04 L/kg | Vd ([5]; Vd, iv 375 μCi/kg): 3.66 L/kg | k el ([5]; phase rate constant β, iv 375 μCi/kg): 9.67e-05 s⁻¹ | half-life ([5]; t1/2α, iv 375 μCi/kg): 0.09 h | half-life ([5]; t1/2β, iv 375 μCi/kg): 1.99 h | fraction unbound [6]: 0.828
